ChEMBL document CHEMBL2434896, “Carbonic anhydrase inhibitors. Synthesis of heterocyclic 4-substituted pyridine-3-sulfonamide derivatives and their inhibition of the human cytosolic isozymes I and II and transmembrane tumor-associated isozymes IX and XII” (Eur J Med Chem, 2013)
Active and inactive are the calls of the source.

Tests used:
RPMI-8226 = assay: Growth inhibition of human RPMI8226 cells at 10 uM after 48 hrs by sulforhodamine B assay; type: functional; conditions: RPMI-8226, 48 h, read-out: GI
MDA-MB-468 = assay: Growth inhibition of human MDA-MB-468 cells at 10 uM after 48 hrs by sulforhodamine B assay; type: functional
Hs-578T = assay: Growth inhibition of human Hs 578T cells at 10 uM after 48 hrs by sulforhodamine B assay; type: functional
786-0 = assay: Growth inhibition of human 786-0 cells at 10 uM after 48 hrs by sulforhodamine B assay; type: functional; conditions: 786-0, 48 h, read-out: GI
COLO 205 = assay: Growth inhibition of human COLO205 cells at 10 uM after 48 hrs by sulforhodamine B assay; type: functional; conditions: COLO 205, 48 h, read-out: GI
CCRF-CEM = assay: Growth inhibition of human CCRF-CEM cells at 10 uM after 48 hrs by sulforhodamine B assay; type: functional; conditions: read-out: GI
RXF 393 = assay: Growth inhibition of human RXF393 cells at 10 uM after 48 hrs by sulforhodamine B assay; type: functional
UO-31 = assay: Growth inhibition of human UO31 cells at 10 uM after 48 hrs by sulforhodamine B assay; type: functional; conditions: UO-31, 48 h, read-out: GI
HOP-92 = assay: Growth inhibition of human HOP92 cells at 10 uM after 48 hrs by sulforhodamine B assay; type: functional; conditions: HOP-92, 48 h, read-out: GI
Malme-3M = assay: Growth inhibition of human MALME-3M cells at 10 uM after 48 hrs by sulforhodamine B assay; type: functional; conditions: read-out: GI
T47D = assay: Growth inhibition of human T47D cells at 10 uM after 48 hrs by sulforhodamine B assay; type: functional
ACHN = assay: Growth inhibition of human ACHN cells at 10 uM after 48 hrs by sulforhodamine B assay; type: functional
SK-OV-3 = assay: Growth inhibition of human SKOV3 cells at 10 uM after 48 hrs by sulforhodamine B assay; type: functional; conditions: SK-OV-3, 48 h, read-out: GI
M14 = assay: Growth inhibition of human M14 cells at 10 uM after 48 hrs by sulforhodamine B assay; type: functional
NCI-H522 = assay: Growth inhibition of human NCI-H522 cells at 10 uM after 48 hrs by sulforhodamine B assay; type: functional; conditions: NCI-H522, 48 h, read-out: GI
U-251 = assay: Growth inhibition of human U251 cells at 10 uM after 48 hrs by sulforhodamine B assay; type: functional; conditions: U-251, 48 h, read-out: GI
NCI-H23 = assay: Growth inhibition of human NCI-H23 cells at 10 uM after 48 hrs by sulforhodamine B assay; type: functional
TK-10 = assay: Growth inhibition of human TK10 cells at 10 uM after 48 hrs by sulforhodamine B assay; type: functional
HT-29 = assay: Growth inhibition of human HT-29 cells at 10 uM after 48 hrs by sulforhodamine B assay; type: functional; conditions: HT-29, 48 h, read-out: GI
UACC-257 = assay: Growth inhibition of human UACC257 cells at 10 uM after 48 hrs by sulforhodamine B assay; type: functional
MDA-MB-231 = assay: Growth inhibition of human MDA-MB-231 cells at 10 uM after 48 hrs by sulforhodamine B assay; type: functional
SK-MEL-5 = assay: Growth inhibition of human SK-MEL-5 cells at 10 uM after 48 hrs by sulforhodamine B assay; type: functional
SN12C = assay: Growth inhibition of human SN12C cells at 10 uM after 48 hrs by sulforhodamine B assay; type: functional
BT-549 = assay: Growth inhibition of human BT549 cells at 10 uM after 48 hrs by sulforhodamine B assay; type: functional; conditions: BT-549, 48 h, read-out: GI
SK-MEL-2 = assay: Growth inhibition of human SK-MEL-2 cells at 10 uM after 48 hrs by sulforhodamine B assay; type: functional
HOP-62 = assay: Growth inhibition of human HOP62 cells at 10 uM after 48 hrs by sulforhodamine B assay; type: functional
UACC-62 = assay: Growth inhibition of human UACC62 cells at 10 uM after 48 hrs by sulforhodamine B assay; type: functional
SW-620 = assay: Growth inhibition of human SW620 cells at 10 uM after 48 hrs by sulforhodamine B assay; type: functional
SF-295 = assay: Growth inhibition of human SF295 cells at 10 uM after 48 hrs by sulforhodamine B assay; type: functional
SK-MEL-28 = assay: Growth inhibition of human SK-MEL-28 cells at 10 uM after 48 hrs by sulforhodamine B assay; type: functional, cell-based
NCI-H322M = assay: Growth inhibition of human NCI-H322M cells at 10 uM after 48 hrs by sulforhodamine B assay; type: functional
SF-268 = assay: Growth inhibition of human SF268 cells at 10 uM after 48 hrs by sulforhodamine B assay; type: functional
NCI-H460 = assay: Growth inhibition of human NCI-H460 cells at 10 uM after 48 hrs by sulforhodamine B assay; type: functional
DU-145 = assay: Growth inhibition of human DU145 cells at 10 uM after 48 hrs by sulforhodamine B assay; type: functional
NCI/ADR-RES = assay: Growth inhibition of human NCI-ADR-RES cells at 10 uM after 48 hrs by sulforhodamine B assay; type: functional
SR = assay: Growth inhibition of human SR cells at 10 uM after 48 hrs by sulforhodamine B assay; type: functional; conditions: read-out: GI
OVCAR-4 = assay: Growth inhibition of human OVCAR4 cells at 10 uM after 48 hrs by sulforhodamine B assay; type: functional; conditions: OVCAR-4, 48 h, read-out: GI
HCT-15 = assay: Growth inhibition of human HCT15 cells at 10 uM after 48 hrs by sulforhodamine B assay; type: functional; conditions: HCT-15, 48 h, read-out: GI
MOLT-4 = assay: Growth inhibition of human MOLT4 cells at 10 uM after 48 hrs by sulforhodamine B assay; type: functional; conditions: MOLT-4, 48 h, read-out: GI
K562 = assay: Growth inhibition of human K562 cells at 10 uM after 48 hrs by sulforhodamine B assay; type: functional
SNB-19 = assay: Growth inhibition of human SNB19 cells at 10 uM after 48 hrs by sulforhodamine B assay; type: functional
OVCAR-8 = assay: Growth inhibition of human OVCAR8 cells at 10 uM after 48 hrs by sulforhodamine B assay; type: functional; conditions: OVCAR-8, 48 h, read-out: GI
OVCAR-5 = assay: Growth inhibition of human OVCAR5 cells at 10 uM after 48 hrs by sulforhodamine B assay; type: functional
LOX IMVI = assay: Growth inhibition of human LOXIMVI cells at 10 uM after 48 hrs by sulforhodamine B assay; type: functional
HCT-116 = assay: Growth inhibition of human HCT116 cells at 10 uM after 48 hrs by sulforhodamine B assay; type: functional; conditions: HCT-116, 48 h, read-out: GI
PC-3 = assay: Growth inhibition of human PC3 cells at 10 uM after 48 hrs by sulforhodamine B assay; type: functional; conditions: PC-3, 48 h, read-out: GI

CCc1cc(CC)n(-c2ccncc2S(N)(=O)=O)n1
9%: inhibition of growth at 10 µM (RPMI-8226) | inhibition of growth at 10 µM (Malme-3M) | inhibition of growth at 10 µM (OVCAR-8)
2%: inhibition of growth at 10 µM (786-0) | inhibition of growth at 10 µM (BT-549) | inhibition of growth at 10 µM (MOLT-4)
8%: inhibition of growth at 10 µM (UO-31)
7%: inhibition of growth at 10 µM (NCI-H522)
4%: inhibition of growth at 10 µM (CCRF-CEM) | inhibition of growth at 10 µM (OVCAR-4) | inhibition of growth at 10 µM (HCT-15)
13%: inhibition of growth at 10 µM (COLO 205)
inactive: growth inhibition (GI) (MDA-MB-468) | growth inhibition (GI) (Hs-578T) | growth inhibition (GI) (RXF 393) | growth inhibition (GI) (T47D) | growth inhibition (GI) (ACHN) | growth inhibition (GI) (M14) | growth inhibition (GI) (NCI-H23) | growth inhibition (GI) (TK-10) | growth inhibition (GI) (UACC-257) | growth inhibition (GI) (MDA-MB-231) | growth inhibition (GI) (SK-MEL-5) | growth inhibition (GI) (SN12C) | growth inhibition (GI) (SK-MEL-2) | growth inhibition (GI) (HOP-62) | growth inhibition (GI) (UACC-62) | growth inhibition (GI) (SW-620) | growth inhibition (GI) (SF-295) | growth inhibition (GI) (SK-MEL-28) | growth inhibition (GI) (NCI-H322M) | growth inhibition (GI) (SF-268) | growth inhibition (GI) (NCI-H460) | growth inhibition (GI) (DU-145) | growth inhibition (GI) (NCI/ADR-RES) | growth inhibition (GI) (K562) | growth inhibition (GI) (SNB-19) | growth inhibition (GI) (OVCAR-5) | growth inhibition (GI) (LOX IMVI)
6%: inhibition of growth at 10 µM (SK-OV-3)
5%: inhibition of growth at 10 µM (SR)
1%: inhibition of growth at 10 µM (HOP-92) | inhibition of growth at 10 µM (U-251) | inhibition of growth at 10 µM (HT-29) | inhibition of growth at 10 µM (HCT-116) | inhibition of growth at 10 µM (PC-3)
